From patent publication US9155814B2, “Nanostructured material formulated with bone cement for effective antibiotic delivery” (priority 2009, dated 2015)

Assay: In vitro drug release study in PBS buffer
Type: physicochemical
Conditions: for percentage released from the bone cement: MSN-formulated bone cement loaded with gentamicin and indomethacin, FIG. 15, 80 days stated for gentamicin; for amount released as a percentage to the amount loaded: after 80 days, MSN-functionalized bone cement loaded with gentamicin and vancomycin, FIG. 13; for percentage released: over 70 days, MSN functionalized bone cement loaded with gentamicin and ibuprofen, FIG. 14; for gentamicin released: FIG. 8
Method: The drug release study was conducted by socking two cylinder samples of each composition in 5 ml PBS buffer (pH 7.4). The sample was put in an incubator shaker operated at 37° C. and 40 rpm. The release medium was withdrawn at predetermined time intervals, and replaced with fresh PBS buffer (5 ml) each time. The accumulative amount of gentamicin released was calculated based on the initial weight of bone cement cylinder and the drug content. The gentamicin release was followed for 80 days.
The o-phthaldialdehyde was used as a derivatizing agent to react with the amino groups of gentamicin and yield chromophoric products. The reaction was carried out making 1 ml of our problem gentamicin in solution react with 1 ml of isopropanol (to avoid the precipitation of the products formed) and 1 ml of o-phthaldialdehyde reagent. After fully mixed, the concentration of gentamicin sulfate was determined by the UV absorbance at 332 nm.
The concentration of ibuprofen, vancomycin and indomethacin was directly determined by UV-vis detection without the presence of reactive reagent.

| Compound | percentage released from the bone cement [%] | amount released as a percentage to the amount loaded [%] | percentage released [%] | gentamicin released when loaded alone (MSN-functionalized bone cement, gentamicin alone) [%] | gentamicin released (SmartSet HV composite bone cement with 2 wt % of MSN) | gentamicin released (SmartSet HV composite bone cement with 6.0 wt % of MSN) |
| --- | --- | --- | --- | --- | --- | --- |
| COc1ccc2c(c1)c(CC(=O)O)c(C)n2C(=O)c1ccc(Cl)cc1 [indomethacin] | 15 |  |  |  |  |  |
| CN[C@H](CC(C)C)C(=O)N[C@H]1C(=O)N[C@@H](CC(N)=O)C(=O)N[C@H]2C(=O)N[C@H]3C(=O)N[C@H](C(=O)N[C@H](C(=O)O)c4cc(O)cc(O)c4-c4cc3ccc4O)[C@H](O)c3ccc(c(Cl)c3)Oc3cc2cc(c3O[C@@H]2O[C@H](CO)[C@@H](O)[C@H](O)[C@H]2O[C@H]2C[C@](C)(N)[C@H](O)[C@H](C)O2)Oc2ccc(cc2Cl)[C@H]1O [vancomycin] |  | 31 |  |  |  |  |
| CC(C)Cc1ccc(C(C)C(=O)O)cc1 (stereo not drawn) [ibuprofen] |  |  | 47 |  |  |  |
| gentamicin | 51 | 40.8 | 90 | 70 | much lower | more than 55% |
